From ChEMBL document CHEMBL1126104, “Synthesis and antiviral activity of some new S-adenosyl-L-homocysteine derivatives” (1992)
≈ marks a conversion by molar mass, not a printed value.

Assays:
[1] = test system: Human immunodeficiency virus 1; assay: Antiviral activity against (HIV-1) in MT-4 cells Value in parentheses is inhibitory concentration for cell growth (MT-4); type: functional, MT4
[2] = test system: Human alphaherpesvirus 2; assay: Antiviral activity against HSV-2(G) strain in primary rabbit kidney (PRK) / embryonic skin-muscle (E6SM) fibroblast culture lines; type: functional; conditions: Human alphaherpesvirus 2, Muscle tissue
[3] = test system: Coxsackievirus B4; assay: Antiviral activity against coxsackie B4 in Vero cell culture lines; type: functional; conditions: Enterovirus B
[4] = test system: Coxsackievirus B4; assay: Antiviral activity against coxsackie B4 virus in HeLa cell culture lines; type: functional; conditions: Enterovirus B
[5] = test system: Semliki Forest virus; assay: Antiviral activity against semliki forest virus (SFV) in Vero cell culture lines; type: functional
[6] = test system: Vesicular stomatitis virus; assay: Antiviral activity against vesicular stomatitis virus (VSV) in HeLa cell culture lines,; type: functional
[7] = test system: Vesicular stomatitis virus; assay: Antiviral activity against vesicular stomatitis virus (VSV) in primary rabbit kidney (PRK) / embryonic skin-muscle (E6SM) fibroblast culture lines; type: functional; conditions: Muscle tissue
[8] = test system: Vaccinia virus; assay: Antiviral activity against vaccinia virus (VV) in primary rabbit kidney (PRK) / embryonic skin-muscle (E6SM) fibroblast culture lines; type: functional; conditions: Orthopoxvirus vaccinia, Muscle tissue
[9] = test system: Human alphaherpesvirus 1; assay: Antiviral activity against HSV-1(KOS) strain in primary rabbit kidney (PRK) / embryonic skin-muscle (E6SM) fibroblast culture lines; type: functional; conditions: Human alphaherpesvirus 1, Muscle tissue
[10] = test system: Poliovirus 1; assay: Antiviral activity against polio virus type 1 in HeLa cell culture lines; type: functional; conditions: Enterovirus C
[11] = test system: Human respirovirus 3; assay: Antiviral activity against parainfluenza virus type 3 in Vero cell culture lines; type: functional
[12] = test system: Sindbis virus; assay: Antiviral activity against sindbis virus in Vero cell culture lines; type: functional
[13] = test system: Mammalian orthoreovirus 1; assay: Antiviral activity against reovirus type 1 in Vero cell culture lines; type: functional

Row | Compound | MIC [1] | MIC [2] | MIC [3] | MIC [4] | MIC [5] | MIC [6] | MIC [7] | MIC [8] | MIC [9] | MIC [10] | MIC [11] | MIC [12] | MIC [13]
1 | Nc1nccc2c1ncn2[C@@H]1O[C@H](CO)C[C@H]1O | > 20 µg/mL | 70 µg/mL (≈ 280 µM) | > 100 µg/mL | > 40 µg/mL | > 100 µg/mL | > 40 µg/mL | > 100 µg/mL | > 40 µg/mL | > 100 µg/mL | > 40 µg/mL | > 100 µg/mL | > 100 µg/mL | > 100 µg/mL
2 | Nc1ncnc2c1CCN2[C@@H]1O[C@H](CO)C[C@H]1O | – | 7 µg/mL (≈ 27.7 µM) | 7 µg/mL (≈ 27.7 µM) | 7 µg/mL (≈ 27.7 µM) | > 40 µg/mL | > 10 µg/mL | > 10 µg/mL | 7 µg/mL (≈ 27.7 µM) | > 10 µg/mL | 7 µg/mL (≈ 27.7 µM) | 7 µg/mL (≈ 27.7 µM) | 30 µg/mL (≈ 119 µM) | 4 µg/mL (≈ 15.9 µM)
3 | Nc1ncnc2c([C@@H]3O[C@H](CO)C[C@H]3O)n[nH]c12 | > 100 µg/mL | > 400 µg/mL | > 200 µg/mL | > 400 µg/mL | > 400 µg/mL | > 400 µg/mL | > 400 µg/mL | > 400 µg/mL | > 400 µg/mL | > 400 µg/mL | 300 µg/mL (≈ 1190 µM) | > 400 µg/mL | > 200 µg/mL
4 | Nc1ncnc2c1CCN2[C@@H]1O[C@H](CSCCC(N)C(=O)O)C[C@H]1O (stereo partly drawn) | – | > 100 µg/mL | > 200 µg/mL | > 200 µg/mL | > 200 µg/mL | 20 µg/mL (≈ 54.1 µM) | 20 µg/mL (≈ 54.1 µM) | 2 µg/mL (≈ 5.41 µM) | > 100 µg/mL | > 200 µg/mL | 100 µg/mL (≈ 271 µM) | > 200 µg/mL | 70 µg/mL (≈ 189 µM)
5 | Nc1nccc2c1ncn2[C@@H]1O[C@H](CO)[C@@H](O)[C@H]1O | – | 100 µg/mL (≈ 376 µM) | > 200 µg/mL | > 400 µg/mL | > 400 µg/mL | > 2 µg/mL | 0.7 µg/mL (≈ 2.63 µM) | 1 µg/mL (≈ 3.76 µM) | > 400 µg/mL | > 400 µg/mL | 0.4 µg/mL (≈ 1.5 µM) | 70 µg/mL (≈ 263 µM) | 0.4 µg/mL (≈ 1.5 µM)
6 | CCCOC(=O)C(CCSC[C@H]1OC(n2ccc3c(N)ncnc32)[C@H](O)[C@@H]1O)NC(=O)COC (stereo partly drawn) | 0.8 µg/mL (≈ 1.61 µM) | 10 µg/mL (≈ 20.1 µM) | 15 µg/mL (≈ 30.1 µM) | 100 µg/mL (≈ 201 µM) | > 70 µg/mL | > 20 µg/mL | 2 µg/mL (≈ 4.02 µM) | 4 µg/mL (≈ 8.04 µM) | 20 µg/mL (≈ 40.2 µM) | 100 µg/mL (≈ 201 µM) | 20 µg/mL (≈ 40.2 µM) | > 40 µg/mL | > 30 µg/mL
7 | CC(C)(C)C(=O)ONC(CCSC[C@H]1OC(n2ccc3c(N)ncnc32)[C@H](O)[C@@H]1O)C(=O)OCC[Si](C)(C)C (stereo partly drawn) | > 8 µg/mL | > 10 µg/mL | 70 µg/mL (≈ 120 µM) | > 40 µg/mL | > 40 µg/mL | > 40 µg/mL | > 10 µg/mL | 2 µg/mL (≈ 3.43 µM) | > 10 µg/mL | > 40 µg/mL | > 40 µg/mL | > 40 µg/mL | > 40 µg/mL
8 | COCC(=O)NC(CCSC[C@H]1OC(n2ccc3c(N)ncnc32)[C@H](O)[C@@H]1O)C(=O)O (stereo partly drawn) | > 200 µg/mL | > 400 µg/mL | > 400 µg/mL | > 400 µg/mL | > 400 µg/mL | > 400 µg/mL | > 20 µg/mL | > 400 µg/mL | > 400 µg/mL | > 400 µg/mL | > 400 µg/mL | > 400 µg/mL | > 400 µg/mL
9 | CC(=O)NC(CCSC[C@H]1OC(n2ccc3c(N)ncnc32)[C@H](O)[C@@H]1O)C(=O)O (stereo partly drawn) | > 200 µg/mL | > 200 µg/mL | > 400 µg/mL | > 400 µg/mL | > 400 µg/mL | > 400 µg/mL | > 200 µg/mL | 7 µg/mL (≈ 16.5 µM) | > 200 µg/mL | > 400 µg/mL | > 400 µg/mL | > 400 µg/mL | > 700 µg/mL
10 | CCOC(=O)C(N)CCSC[C@H]1OC(n2ccc3c(N)ncnc32)[C@H](O)[C@@H]1O (stereo partly drawn) | – | 20 µg/mL (≈ 48.6 µM) | 20 µg/mL (≈ 48.6 µM) | 70 µg/mL (≈ 170 µM) | > 100 µg/mL | 20 µg/mL (≈ 48.6 µM) | 7 µg/mL (≈ 17 µM) | 7 µg/mL (≈ 17 µM) | 20 µg/mL (≈ 48.6 µM) | 70 µg/mL (≈ 170 µM) | > 100 µg/mL | > 100 µg/mL | > 70 µg/mL
11 | CCOC(=O)C(CCSC[C@H]1OC(n2ccc3c(N)ncnc32)[C@H](O)[C@@H]1O)NC(=O)COC (stereo partly drawn) | – | > 100 µg/mL | > 150 µg/mL | 150 µg/mL (≈ 310 µM) | > 400 µg/mL | > 70 µg/mL | 70 µg/mL (≈ 145 µM) | 2 µg/mL (≈ 4.14 µM) | > 100 µg/mL | > 200 µg/mL | > 400 µg/mL | 300 µg/mL (≈ 620 µM) | 300 µg/mL (≈ 620 µM)
12 | CCCOC(=O)C(CCSC[C@H]1OC(n2ccc3c(N)ncnc32)[C@H](O)[C@@H]1O)NC(=O)C(F)(F)F (stereo partly drawn) | – | > 10 µg/mL | > 150 µg/mL | > 100 µg/mL | > 200 µg/mL | > 20 µg/mL | > 10 µg/mL | 0.7 µg/mL (≈ 1.34 µM) | > 10 µg/mL | > 100 µg/mL | 70 µg/mL (≈ 134 µM) | 70 µg/mL (≈ 134 µM) | > 100 µg/mL
13 | Nc1ncnc2c(C3O[C@H](CSCCC(N)C(=O)O)[C@@H](O)[C@H]3O)n[nH]c12 (stereo partly drawn) | > 4 µg/mL | 400 µg/mL (≈ 1040 µM) | > 100 µg/mL | > 400 µg/mL | > 100 µg/mL | 150 µg/mL (≈ 390 µM) | 20 µg/mL (≈ 52 µM) | 100 µg/mL (≈ 260 µM) | 200 µg/mL (≈ 520 µM) | > 400 µg/mL | 30 µg/mL (≈ 78 µM) | > 100 µg/mL | > 100 µg/mL
14 | CC(C)OC(=O)C(CCSC[C@H]1OC(n2ccc3c(N)ncnc32)[C@H](O)[C@@H]1O)NC(=O)C(F)(F)F (stereo partly drawn) | > 4 µg/mL | 10 µg/mL (≈ 19.2 µM) | > 50 µg/mL | > 100 µg/mL | > 100 µg/mL | 20 µg/mL (≈ 38.3 µM) | 5 µg/mL (≈ 9.59 µM) | 1 µg/mL (≈ 1.92 µM) | 20 µg/mL (≈ 38.3 µM) | > 100 µg/mL | > 50 µg/mL | > 70 µg/mL | > 50 µg/mL
15 | CC(C)OC(=O)C(N)CCSC[C@H]1OC(n2ccc3c(N)ncnc32)[C@H](O)[C@@H]1O (stereo partly drawn) | > 1.6 µg/mL | > 10 µg/mL | > 100 µg/mL | > 40 µg/mL | > 100 µg/mL | 7 µg/mL (≈ 16.5 µM) | 7 µg/mL (≈ 16.5 µM) | 0.2 µg/mL (≈ 0.47 µM) | > 10 µg/mL | > 100 µg/mL | 20 µg/mL (≈ 47 µM) | > 40 µg/mL | > 40 µg/mL
16 | Nc1ncnc2c1ncn2C[C@H](O)CO [(S)-DHPA] | – | > 400 µg/mL | > 70 µg/mL | > 400 µg/mL | > 400 µg/mL | > 70 µg/mL | 20 µg/mL (≈ 95.6 µM) | 40 µg/mL (≈ 191 µM) | > 400 µg/mL | > 400 µg/mL | 10 µg/mL (≈ 47.8 µM) | > 400 µg/mL | 7 µg/mL (≈ 33.5 µM)
17 | Nc1ncnc2c1ccn2[C@@H]1O[C@H](CO)[C@@H](O)[C@H]1O [TUBERCIDIN] | – | 0.2 µg/mL (≈ 0.751 µM) | 0.07 µg/mL (≈ 0.263 µM) | 0.2 µg/mL (≈ 0.751 µM) | > 0.1 µg/mL | 0.07 µg/mL (≈ 0.263 µM) | 0.07 µg/mL (≈ 0.263 µM) | > 0.1 µg/mL | > 0.2 µg/mL | 0.2 µg/mL (≈ 0.751 µM) | 0.02 µg/mL (≈ 0.0751 µM) | > 0.1 µg/mL | 0.02 µg/mL (≈ 0.0751 µM)
